Source: ChEMBL document CHEMBL5352455, “Discovery of novel N-acylpyrazoles as potent and selective thrombin inhibitors” (Eur J Med Chem, 2023)

Tests used:
[1] = in vitro; conditions: human, plasma
Description: Stability in human plasma assessed as half life

[2] = in vitro; conditions: Sprague-Dawley, rat, plasma
Description: Stability in Sprague-Dawley rat plasma assessed as half life

[3] = in vitro; conditions: CD-1, mouse, plasma
Description: Stability in CD-1 mouse plasma assessed as half life

[4] = AUC in CD-1 mouse at 5 mg/kg, po measured after 24 hrs by LC-MS analysis; assay type: ADME, organism-based; set-up: dose 5 mg/kg, time 24 hrs, route po; conditions: in vivo
[5] = Cmax in CD-1 mouse at 5 mg/kg, po measured after 24 hrs by LC-MS analysis; assay type: ADME, organism-based; set-up: time 24 hrs, dose 5 mg/kg, route po; conditions: in vivo
[6] = Half life in CD-1 mouse at 0.5 mg/kg, iv measured after 24 hrs by LC-MS analysis; assay type: ADME, organism-based; conditions: in vivo
[7] = Oral bioavailability in CD-1 mouse at 5 mg/kg measured after 24 hrs by LC-MS analysis; assay type: ADME, organism-based; conditions: in vivo
[8] = AUC in CD-1 mouse at 0.5 mg/kg, iv measured after 24 hrs by LC-MS analysis; assay type: ADME, organism-based; set-up: time 24 hrs, dose 0.5 mg/kg, route iv; conditions: in vivo
[9] = Tmax in CD-1 mouse at 5 mg/kg, po measured after 24 hrs by LC-MS analysis; assay type: ADME, organism-based; conditions: in vivo
[10] = Half life in CD-1 mouse at 5 mg/kg, po measured after 24 hrs by LC-MS analysis; assay type: ADME, organism-based; conditions: in vivo

Compound	half-life [1]	half-life [3]	further results
C[C@@H]1CNc2c(cccc2S(=O)(=O)N[C@@H](CCCNC(=N)N)C(=O)N2CC[C@@H](C)C[C@@H]2C(=O)O)C1	> 120 min	> 120 min	half-life [2]: > 120 min
CC(C)(C)C(=O)n1nc(C2CCCNC2)cc1NCc1ccc(Cl)s1 (stereo unspecified)	–	910 min	–
O=C(c1ccsc1)n1nc(-c2ccccc2F)nc1NCc1cccs1	69 min	–	–
CC(C)(CO)C(=O)n1nc(C2CCNCC2)c(F)c1NCc1ccc(Cl)s1	–	44 min	–
COc1ccccc1C(=O)n1nc(-c2ccccn2)nc1NCc1ccc(Cl)s1	30 min	4.1 min	half-life [2]: 1.5 min
CC(C)(C)C(=O)n1nc(-c2ccc[nH]c2=O)cc1NCc1ccc(Cl)s1	–	350 min	AUC at 24 h [4]: 713 ng·h/mL; Cmax [5]: 127 ng/mL; half-life [6]: 42 min; bioavailability [7]: 22.8%; AUC at 24 h [8]: 300 ng·h/mL; Tmax [9]: 42 min; half-life [10]: 354 min
COc1ccccc1C(=O)n1nc(-c2ccccc2F)nc1NCc1cccs1	48 min	–	–
CC(C)(C)C(=O)n1nc(-c2cccnn2)cc1NCc1ccc(Cl)s1	51 min	–	–
COc1ccccc1C(=O)n1nc(C2CCOCC2)cc1NCc1ccc(Cl)s1	–	160 min	–
COc1ccccc1C(=O)n1nc(C2CCNCC2)cc1NCc1ccc(Cl)s1	–	43 min	–
